Strand notation (5' to 3'): a small letter for the sugar, then the base; units joined by * are phosphorothioate-linked, units joined directly phosphodiester-linked; [ ] holds rarer units or linkages, { } end groups; capitals alone tell only the bases. e = 2'-O-(2-methoxyethyl) (MOE); [5mC] = 5-methylcytosine; d = 2'-deoxy (DNA)
Tested on: human PKK mRNA
Assay: Antisense inhibition of human PKK mRNA in HepaRG cells, 5,000 nM (Example 2)
Type: cell-based
Procedure, shortened: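 qRT-PCR (RTS3454) read-out, RIBOGREEN-normalized; % inhibition vs untreated cells. HepaRG, 20,000 cells/well, electroporation, 5,000 nM ASO, ~24 h.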

[1] = human PKK mRNA, HepaRG cells, 5-10-5 motif oligonucleotides targeting SEQ ID NO: 1 and 10
[2] = HepaRG cells, electroporation with 5,000 nM antisense oligonucleotide, approximately 24 hours, PKK mRNA by RT-PCR (RTS3454), relative to untreated control cells, Table 6 experiment
[3] = HepaRG cells, 5,000 nM antisense oligonucleotide, 5-10-5 gapmers, Table 16
[4] = Table 13, human PKK mRNA in HepaRG cells, 5-10-5 gapmers
[5] = HepaRG cells, electroporation with 5,000 nM antisense oligonucleotide, approximately 24 hours, PKK mRNA by RT-PCR (RTS3454), relative to untreated control cells, Table 5 experiment
[6] = HepaRG cells, electroporation, 5,000 nM antisense oligonucleotide, approx. 24 hours, primer probe set RTS3454, relative to untreated control cells, Table 12
[7] = Table 8, HepaRG cells, electroporation with 5,000 nM antisense oligonucleotide, approx. 24 hours, PKK mRNA by RT-PCR (RTS3454), relative to untreated control cells
[8] = HepaRG cells, 5,000 nM antisense oligonucleotide, 5-10-5 gapmers, Table 17
[9] = Table 9 experiment, HepaRG cells, 20,000 cells per well, electroporation with 5,000 nM antisense oligonucleotide, approx. 24 hours, PKK mRNA by RT-PCR (RTS3454), relative to untreated control cells
[10] = Table 10 experiment, HepaRG cells, 20,000 cells per well, electroporation with 5,000 nM antisense oligonucleotide, approx. 24 hours, PKK mRNA by RT-PCR (RTS3454), relative to untreated control cells
[11] = Table 7, HepaRG cells, electroporation with 5,000 nM antisense oligonucleotide, approx. 24 hours, PKK mRNA by RT-PCR (RTS3454), relative to untreated control cells
[12] = HepaRG cells, 5,000 nM antisense oligonucleotide, human PKK mRNA, Table 18
[13] = HepaRG cells, electroporation, 5,000 nM antisense oligonucleotide, approx. 24 hours, primer probe set RTS3454, relative to untreated control cells, Table 11
[14] = human PKK mRNA, HepaRG cells, 5,000 nM antisense oligonucleotide, Table 18
[15] = human PKK mRNA in HepaRG cells, 5-10-5 gapmers, Table 14

547639 (eG*eT*e[5mC]*e[5mC]*eT*dA*dT*dA*dA*d[5mC]*dT*dA*dT*dA*dA*e[5mC]*eA*eG*eT*eA; antisense) [compound 547639]
% inhibition [1]: 72%

546199 (antisense eT*eG*eG*e[5mC]*eA*dT*dT*d[5mC]*dT*dT*d[5mC]*dA*dA*d[5mC]*dA*e[5mC]*eT*eG*e[5mC]*eT) [compound 546199]
% inhibition [2]: 97%

546975 (eG*eG*e[5mC]*e[5mC]*eT*dG*dG*dA*dT*dA*d[5mC]*dA*dG*d[5mC]*d[5mC]*eT*eT*eT*e[5mC]*eT; antisense) [compound 546975]
% inhibition [3]: 70%

546765 (eG*eT*eG*eT*e[5mC]*d[5mC]*dA*dG*dA*dA*dT*dA*d[5mC]*dT*dG*e[5mC]*e[5mC]*e[5mC]*e[5mC]*eA; antisense) [compound 546765]
% inhibition [4]: 82%

546170 (antisense eG*e[5mC]*eA*eA*e[5mC]*d[5mC]*dA*dA*dA*d[5mC]*d[5mC]*dT*dT*dT*dT*e[5mC]*eT*e[5mC]*e[5mC]*eA) [compound 546170]
% inhibition [5]: 54%

546494 (eG*e[5mC]*eA*eT*eA*d[5mC]*dT*d[5mC]*dG*d[5mC]*d[5mC]*dT*dT*dT*dG*eT*eG*eA*e[5mC]*eT; antisense) [compound 546494]
% inhibition [6]: 67%

546845 (eT*eG*eT*e[5mC]*e[5mC]*dT*dA*dT*dA*dT*d[5mC]*dA*d[5mC]*dT*dG*eT*e[5mC]*e[5mC]*eT*eA; antisense) [compound 546845]
% inhibition [4]: 75%

547411 (e[5mC]*eA*eT*e[5mC]*eT*dT*dT*dG*dT*dG*d[5mC]*dA*dA*dG*dT*e[5mC]*eT*e[5mC]*eT*eT; antisense) [compound 547411]
% inhibition [7]: 79%

547625 (antisense e[5mC]*eA*eG*eT*eA*dT*d[5mC]*dA*d[5mC]*dT*dG*dT*d[5mC]*d[5mC]*dT*eA*eT*eG*eT*e[5mC]) [compound 547625]
% inhibition [1]: 79%

547416 (e[5mC]*eT*eT*eA*e[5mC]*dA*dG*dT*d[5mC]*dT*dT*d[5mC]*dT*dG*dG*eG*eA*eG*eT*eA; antisense) [compound 547416]
% inhibition [7]: 79%

547737 (eT*eG*eG*eT*eG*dG*dT*dG*dG*dG*dA*dT*dT*dG*dG*eT*eG*e[5mC]*eT*eG; antisense) [compound 547737]
% inhibition [8]: 59%

547436 (antisense e[5mC]*eT*e[5mC]*e[5mC]*e[5mC]*d[5mC]*dA*dA*dG*dA*dA*dG*dA*dG*dT*eT*eT*eG*eT*eT) [compound 547436]
% inhibition [7]: 0%

547701 (antisense e[5mC]*eA*eT*e[5mC]*eA*d[5mC]*dT*dG*dT*dA*d[5mC]*d[5mC]*dT*dA*dT*eA*eA*e[5mC]*eT*eA) [compound 547701]
% inhibition [3]: 49%

547486 (antisense eT*eG*e[5mC]*eA*eA*dA*d[5mC]*dT*dA*dA*dG*dG*dG*dA*d[5mC]*e[5mC]*eA*e[5mC]*e[5mC]*eT) [compound 547486]
% inhibition [9]: 89%
% inhibition [10]: 78%

547385 (eT*eG*eT*eG*e[5mC]*d[5mC]*dA*d[5mC]*dT*dT*dT*d[5mC]*dA*dG*dA*eT*eG*eT*eT*eT; antisense) [compound 547385]
% inhibition [11]: 80%

547705 (antisense eG*e[5mC]*eA*e[5mC]*e[5mC]*d[5mC]*dA*dA*dT*dA*d[5mC]*dA*dG*dG*dG*e[5mC]*e[5mC]*eA*eG*eG) [compound 547705]
% inhibition [3]: 69%

547378 (eT*eA*e[5mC]*eA*eT*dT*dT*dG*dT*dA*dT*dA*dG*dA*dA*eT*eG*eT*eA*eA; antisense) [compound 547378]
% inhibition [11]: 0%

547446 (antisense eT*eT*eG*eT*eG*dA*dG*dA*dA*dA*dG*dG*dT*dG*dT*eA*eT*e[5mC]*eT*eT) [compound 547446]
% inhibition [7]: 84%

547709 (antisense eA*eG*e[5mC]*e[5mC]*e[5mC]*dA*dA*dT*dG*dT*d[5mC]*d[5mC]*dT*dA*dA*e[5mC]*e[5mC]*eT*eG*eT) [compound 547709]
% inhibition [3]: 76%

546296 (antisense eG*eA*eA*eG*e[5mC]*d[5mC]*d[5mC]*dA*dT*d[5mC]*dA*dA*dA*dG*d[5mC]*eA*eG*eT*eG*eG) [compound 546296]
% inhibition [7]: 27%

546977 (eG*eT*e[5mC]*e[5mC]*e[5mC]*dG*dA*dA*dG*dA*dG*dT*d[5mC]*dA*dA*eG*eT*e[5mC]*e[5mC]*eA; antisense) [compound 546977]
% inhibition [3]: 76%

547726 (eG*e[5mC]*eA*eG*eG*dA*dT*dT*dG*dG*dT*dG*dG*dT*dG*eG*eA*eA*eT*eT; antisense) [compound 547726]
% inhibition [8]: 0%

548715 (DNA eA*eT*e[5mC]*dA*d[5mC]*dT*dG*dT*dA*d[5mC]*dT*dA*dG*eT*eT*eT; antisense) [compound 548715]
% inhibition [12]: 0%

546141 (eG*eA*eA*eA*eT*dA*dA*dG*dT*dT*dG*d[5mC]*dT*dT*dG*e[5mC]*eT*eT*eG*eA; antisense) [compound 546141]
% inhibition [5]: 56%

546279 (eG*e[5mC]*eT*e[5mC]*e[5mC]*d[5mC]*dT*dT*dG*dT*dG*dT*d[5mC]*d[5mC]*d[5mC]*eA*eT*eA*e[5mC]*eG; antisense) [compound 546279]
% inhibition [7]: 82%

546508 (eG*e[5mC]*eA*eG*e[5mC]*dA*dA*dG*dT*dG*d[5mC]*dT*d[5mC]*d[5mC]*d[5mC]*e[5mC]*eA*eT*eG*e[5mC]; antisense) [compound 546508]
% inhibition [6]: 43%

546447 (eG*eT*e[5mC]*eA*e[5mC]*d[5mC]*dA*dT*dA*dG*dA*d[5mC]*d[5mC]*d[5mC]*dA*eG*eA*eA*eT*e[5mC]; antisense) [compound 546447]
% inhibition [6]: 68%

546362 (antisense eT*e[5mC]*eA*eT*eG*d[5mC]*dT*dG*dG*dT*dG*dA*d[5mC]*dT*dG*e[5mC]*eA*eT*e[5mC]*eT) [compound 546362]
% inhibition [13]: 71%

548720 (DNA eT*eG*eT*dA*d[5mC]*dT*dA*dG*dT*dT*dT*d[5mC]*d[5mC]*eT*eA*eT*eA; antisense) [compound 548720]
% inhibition [12]: 0%

546373 (antisense e[5mC]*eT*e[5mC]*eA*eG*dA*dA*dT*dT*dT*dG*dA*d[5mC]*dT*dT*eG*eA*eA*e[5mC]*eT) [compound 546373]
% inhibition [13]: 59%

547447 (antisense eA*eT*eT*eT*eG*dT*dG*dA*dG*dA*dA*dA*dG*dG*dT*eG*eT*eA*eT*e[5mC]) [compound 547447]
% inhibition [7]: 80%

547772 (antisense e[5mC]*eT*eG*eT*eG*d[5mC]*dT*d[5mC]*d[5mC]*d[5mC]*dG*dG*d[5mC]*d[5mC]*dA*eT*eT*eA*eG*e[5mC]) [compound 547772]
% inhibition [8]: 0%

546690 (e[5mC]*eT*e[5mC]*eT*eG*d[5mC]*dT*dG*dG*dT*dT*dT*dT*dA*dG*eA*e[5mC]*e[5mC]*eA*e[5mC]; antisense) [compound 546690]
% inhibition [6]: 44%

547325 (antisense eG*eA*e[5mC]*e[5mC]*eA*d[5mC]*dA*dT*dT*dG*d[5mC]*dT*dT*d[5mC]*dA*eA*eG*eG*eA*eA) [compound 547325]
% inhibition [2]: 67%

546328 (antisense eG*eA*eA*eG*e[5mC]*d[5mC]*d[5mC]*d[5mC]*dA*dT*d[5mC]*d[5mC]*dG*dG*dT*eT*eA*e[5mC]*e[5mC]*e[5mC]) [compound 546328]
% inhibition [9]: 84%
% inhibition [10]: 81%

546165 (e[5mC]*eA*eT*eT*eG*dA*dT*dT*dG*dA*dA*d[5mC]*dT*dT*dG*e[5mC]*eT*eG*eG*eA; antisense) [compound 546165]
% inhibition [5]: 71%

548772 (antisense eT*eA*eT*eA*dA*d[5mC]*dA*dG*dT*dA*dT*d[5mC]*dA*e[5mC]*eT*eG*eT) [compound 548772]
% inhibition [14]: 0%

546868 (eT*eA*e[5mC]*e[5mC]*eT*dA*dT*dA*dA*d[5mC]*dT*d[5mC]*dT*dA*dA*e[5mC]*eA*eG*eT*eA; antisense) [compound 546868]
% inhibition [15]: 51%

547619 (antisense eT*e[5mC]*e[5mC]*eT*eA*dT*dA*dA*d[5mC]*dA*dG*dT*dA*dT*d[5mC]*eA*e[5mC]*eT*eG*eT) [compound 547619]
% inhibition [15]: 70%

548779 (antisense eG*eT*e[5mC]*e[5mC]*dT*dA*dT*dA*dA*d[5mC]*dT*dA*dT*eA*eA*e[5mC]*eA) [compound 548779]
% inhibition [14]: 0%

547342 (antisense eA*eT*eT*eA*eA*dA*dA*dT*dT*dG*dA*d[5mC]*dT*d[5mC]*d[5mC]*eT*e[5mC]*eT*e[5mC]*eA) [compound 547342]
% inhibition [2]: 66%

546184 (antisense e[5mC]*eA*eA*eG*e[5mC]*dA*d[5mC]*dT*dT*dA*dT*dT*dT*dG*dA*eT*eG*eA*e[5mC]*e[5mC]) [compound 546184]
% inhibition [2]: 65%
